In ChEMBL document CHEMBL3091331, “Aminothiazole-featured pirinixic acid derivatives as dual 5-lipoxygenase and microsomal prostaglandin E2 synthase-1 inhibitors with improved potency and efficiency in vivo” (J Med Chem, 2013):
Active and inactive are the calls of the source. The calls are words filed in the database; no cut-off is given here.

Legend:
[1] = molecular target: T1, Polyunsaturated fatty acid 5-lipoxygenase (Homo sapiens) (UniProt P09917); experiment: Ratio of IC50 for human recombinant 5-lipoxygenase expressed in Escherichia coli BL21 to IC50 for 5-lipoxygenase in human PMNL cells
T1 sequence (whole entry): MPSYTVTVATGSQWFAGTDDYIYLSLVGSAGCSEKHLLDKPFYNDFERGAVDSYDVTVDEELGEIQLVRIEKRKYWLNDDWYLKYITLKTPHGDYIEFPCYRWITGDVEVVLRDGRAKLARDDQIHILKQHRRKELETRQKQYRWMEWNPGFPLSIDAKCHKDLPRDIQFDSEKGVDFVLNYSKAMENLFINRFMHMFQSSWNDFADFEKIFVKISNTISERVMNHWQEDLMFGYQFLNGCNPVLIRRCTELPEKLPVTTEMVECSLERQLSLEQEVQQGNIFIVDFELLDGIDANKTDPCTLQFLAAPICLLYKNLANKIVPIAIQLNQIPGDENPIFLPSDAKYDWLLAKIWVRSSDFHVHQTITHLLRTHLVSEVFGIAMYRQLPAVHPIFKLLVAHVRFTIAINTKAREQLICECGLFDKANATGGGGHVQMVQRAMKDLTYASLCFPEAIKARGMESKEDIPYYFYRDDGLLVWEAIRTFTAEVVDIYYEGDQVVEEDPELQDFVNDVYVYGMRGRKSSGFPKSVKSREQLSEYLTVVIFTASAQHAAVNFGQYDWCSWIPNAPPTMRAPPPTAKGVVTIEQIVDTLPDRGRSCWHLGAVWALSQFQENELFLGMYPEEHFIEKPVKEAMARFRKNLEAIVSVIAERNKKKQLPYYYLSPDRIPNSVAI

[2] = molecular target: T2, Polyunsaturated fatty acid 5-lipoxygenase (Homo sapiens, UniProt P09917); experiment: Inhibition of 5-lipoxygenase in A23187-stimulated human polymorphonuclear leukocytes using arachidonic acid as substrate incubated 15 mins prior to substrate addition measured after 10 mins by HPLC analysis
T2 sequence (P09917 whole entry): T1 sequence (whole entry)

Prostaglandin E synthase [3] = molecular target: T3, Prostaglandin E synthase (Homo sapiens, UniProt O14684); experiment: Inhibition of mPGES-1 from human A549 cell microsomal membranes using PGH2 as substrate incubated 15 mins prior to substrate addition measured after 1 min by RP-HPLC analysis
T3 sequence (O14684 whole entry): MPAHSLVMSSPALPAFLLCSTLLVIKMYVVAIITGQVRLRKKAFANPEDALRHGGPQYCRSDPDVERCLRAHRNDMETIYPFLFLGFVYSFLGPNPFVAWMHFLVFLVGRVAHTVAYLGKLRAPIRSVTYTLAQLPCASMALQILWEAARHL

[4] = molecular target: T2, Polyunsaturated fatty acid 5-lipoxygenase; experiment: Inhibition of human recombinant 5-lipoxygenase expressed in Escherichia coli BL21 using arachidonic acid as substrate incubated 5 to 10 mins prior to substrate addition measured after 10 mins by HPLC analysis
[5] = system: Radical scavenging activity; experiment: Antioxidant activity assessed as DPPH radical scavenging activity at 25 to 100 uM after 30 mins; type: functional
[6] = Metabolic stability in Sprague-Dawley rat liver microsomes assessed as compound remaining at 10 uM after 60 mins by HPLC analysis; type: ADME; conditions: read-out: Stability
[7] = molecular target: T2, Polyunsaturated fatty acid 5-lipoxygenase; experiment: Inhibition of 5-lipoxygenase in human polymorphonuclear leukocytes; type: cell-based
[8] = molecular target: T4, Prostaglandin E synthase (Homo sapiens) (UniProt O14684); experiment: Inhibition of mPGES-1 (unknown origin) assessed as remaining activity at 10 uM; values are per cent of control
T4 sequence (whole entry): T3 sequence (O14684 whole entry)

Mus musculus [9] = experiment: Reduction of LTC4 formation in CD-1 mouse peritonitis model at 1 mg/kg, ip administered 30 mins prior to zymosan-challenge measured after 30 mins by EIA relative to vehicle-treated control; type: functional; conditions: CD-1, ip, route intraperitoneal
Mus musculus [10] = experiment: Antiinflammatory activity in CD-1 mouse peritonitis model assessed as reduction in vascular permeability at 1 mg/kg, ip administered 30 mins prior to zymosan-challenge measured after 4 hrs relative to vehicle-treated control; type: functional; conditions: CD-1, ip, route intraperitoneal
Mus musculus [11] = experiment: Antiinflammatory activity in CD-1 mouse peritonitis model assessed as reduction in neutrophil infiltration at 1 mg/kg, ip administered 30 mins prior to zymosan-challenge measured after 4 hrs by spectrophotometry relative to vehicle-treated control; type: functional; conditions: CD-1, ip, route intraperitoneal
Mus musculus [12] = experiment: Antiinflammatory activity in CD-1 mouse peritonitis model assessed as reduction in myeloperoxidase activity at 1 mg/kg, ip administered 30 mins prior to zymosan-challenge measured after 4 hrs by spectrophotometry relative to vehicle-treated control; type: functional; conditions: CD-1, ip, route intraperitoneal
[13] = molecular target: T1, Polyunsaturated fatty acid 5-lipoxygenase (Homo sapiens); experiment: Inhibition of human recombinant 5-lipoxygenase expressed in Escherichia coli BL21 using arachidonic acid as substrate at 1 uM incubated 5 to 10 mins prior to substrate addition measured after 10 mins by HPLC analysis
Mus musculus [14] = experiment: Reduction of PGE2 biosynthesis in CD-1 mouse peritonitis model at 1 mg/kg, ip administered 30 mins prior to zymosan-challenge measured after 4 hrs by RIA (reference value: 1.46 +/- 0.08 ng/ml); type: functional, organism-based; design: dose 1 mg/kg
Homo sapiens = species on record: Homo sapiens; experiment: Translocation of 5-lipoxygenase from cytosol into nuclear membrane in A23187-stimulated human polymorphonuclear leukocytes assessed as enzyme product formation at 10 uM incubated for 15 mins prior to A23187-challenge measured after 5 mins by Western blotting analysis; type: functional
Prostaglandin E synthase [15] = molecular target: T3, Prostaglandin E synthase; experiment: Inhibition of mPGES-1 (unknown origin)

SMILES | IC50 [2] | IC50 (Prostaglandin E synthase [3]) | IC50 [4] | also measured
CCCCCCC(Sc1nc(Cl)cc(Nc2nc(-c3ccc(C)cc3)cs2)n1)C(=O)O (stereo not given) | 200 nM | 700 nM | 3000 nM | Ratio IC50 [1]: 8
N[C@@H](CS)C(=O)O | – | – | – | Activity [5]: Active
CCCCCCC(Sc1nc(Cl)cc(Nc2nc(-c3ccccc3)c(-c3ccccc3)s2)n1)C(=O)O (stereo not given) | 600 nM | 600 nM | 700 nM | –
CCCCCCC(Sc1nc(Cl)cc(Nc2nc(-c3ccc(Cl)cc3)cs2)n1)C(=O)O (stereo not given) | 900 nM | 700 nM | 800 nM | –
CCCCCCC(Sc1nc(Cl)cc(Nc2nc(-c3ccc(Cl)cc3Cl)cs2)n1)C(=O)O (stereo not given) | 800 nM | 400 nM | 1100 nM | –
CCC(Sc1nc(Cl)cc(Nc2nc(-c3ccc4ccccc4c3)cs2)n1)C(=O)O (stereo not given) | 2900 nM | 1400 nM | 2000 nM | –
CCCCCCC(Sc1nc(Cl)cc(Nc2nc(-c3ccccc3)c(C)s2)n1)C(=O)O (stereo not given) | 600 nM | 700 nM | 1900 nM | remaining at 1 h, 10 µM [6]: 74%
CCC(Sc1nc(Cl)cc(Nc2nc(-c3ccc(Cl)cc3)cs2)n1)C(=O)O (stereo not given) | 3600 nM | 1400 nM | 6600 nM | –
CCCCCCC(Sc1nc(Cl)cc(Nc2nc(-c3ccc(-c4ccccc4)cc3)cs2)n1)C(=O)O (stereo not given) | 300 nM | 500 nM | 600 nM | –
O=C(O)CSc1nc(Cl)cc(Nc2nc(-c3ccc(Cl)cc3)cs2)n1 | > 10000 nM | 2300 nM | > 10000 nM | –
CCCCCCC(Sc1nc(Cl)cc(Nc2nc3c(s2)CCc2cc(OC)ccc2-3)n1)C(=O)O (stereo not given) | 200 nM | 1900 nM | 1900 nM | Ratio IC50 [1]: 8
CCCCCCC(Sc1nc(Cl)cc(Nc2nc(-c3ccccc3)cs2)n1)C(=O)O (stereo not given) | 600 nM | 800 nM | 2000 nM | –
CCCCCCC(Sc1nc(Cl)cc(Nc2ccc(-c3ccccc3)cc2)n1)C(=O)O (stereo not given) | – | – | – | IC50 [7]: 730 nM
CCCCCCC(Sc1nc(Cl)cc(Nc2nc(-c3ccc(C(F)(F)F)cc3)cs2)n1)C(=O)O (stereo not given) | 600 nM | 400 nM | 1200 nM | –
O=C1O[C@H]([C@@H](O)CO)C(O)=C1O | – | – | – | Activity [5]: Active
CCCCCC[C@@H](Sc1nc(Cl)cc(Nc2nc(-c3ccc4ccccc4c3)cs2)n1)C(=O)O | 400 nM | 600 nM | 400 nM | –
CCCCC(Sc1nc(Cl)cc(Nc2nc(-c3ccc(Cl)cc3)cs2)n1)C(=O)O (stereo not given) | 900 nM | 1200 nM | 3800 nM | –
CCCCCCC(Sc1nc(Cl)cc(Nc2nc(-c3ccccc3)c(CC)s2)n1)C(=O)O (stereo not given) | 700 nM | 1700 nM | 1800 nM | –

SMILES | IC50 [2] | IC50 (Prostaglandin E synthase [3]) | IC50 [4] | also measured
CCCCCCC(Sc1nc(Cl)cc(Nc2nc(-c3ccc(OC)cc3)cs2)n1)C(=O)O (stereo not given) | 800 nM | 1300 nM | 1800 nM | –
CCCCCCC(Sc1nc(Cl)cc(Nc2nc(-c3ccc(Br)cc3)cs2)n1)C(=O)O (stereo not given) | 300 nM | 800 nM | 700 nM | –
CCCCCCC(Sc1nc(Cl)cc(Nc2ccc3[nH]c(C(F)(F)F)nc3c2)n1)C(=O)O (stereo not given) | – | – | – | residual activity [8]: 43.4%
CCCCCCC(Sc1nc(Cl)cc(Nc2cccc(C)c2C)n1)C(=O)O (stereo not given) | 3900 nM | – | – | –
O=C(O)C(Sc1nc(Cl)cc(Nc2nc(-c3ccc(Cl)cc3)cs2)n1)c1cccc2ccccc12 (stereo not given) | 400 nM | 500 nM | 700 nM | –
CCOc1ccc2ccc(=O)oc2c1 [ETHOXYCOUMARIN] | – | – | – | remaining at 1 h, 10 µM [6]: 31%
CC(C)c1ccc2c(c1)c(SC(C)(C)C)c(CC(C)(C)C(=O)O)n2Cc1ccc(Cl)cc1 | – | – | – | inhibition in vivo at 1 mg/kg (Mus musculus [9]): 94%; inhibition in vivo at 1 mg/kg (Mus musculus [10]): 76%; inhibition in vivo at 1 mg/kg (Mus musculus [11]): 34%; inhibition in vivo at 1 mg/kg (Mus musculus [12]): 18%; inhibition [13]: inactive; inhibition (Mus musculus [14]): inactive
CCCCCC[C@H](Sc1nc(Cl)cc(Nc2nc(-c3ccc4ccccc4c3)cs2)n1)C(=O)O | 900 nM | 600 nM | 300 nM | –
CCCCCCC(Sc1nc(Cl)cc(Nc2nc(-c3ccc(F)c(F)c3)cs2)n1)C(=O)O (stereo not given) | 1500 nM | 1600 nM | 2300 nM | –
CC(C)=CCC[C@]1(C)[C@@H](CC=C(C)C)C[C@]2(CC=C(C)C)C(=O)C(CC=C(C)C)=C(O)[C@@]1(C(=O)C(C)C)C2=O | – | – | – | Activity (Homo sapiens): Active
CCCCCCC(Sc1nc(Cl)cc(Nc2nc(-c3cccc4ccccc34)cs2)n1)C(=O)O (stereo not given) | 400 nM | 1700 nM | 700 nM | –
CCCCCCC(Sc1nc(Cl)cc(Nc2nc(C34CC5CC(CC(C5)C3)C4)cs2)n1)C(=O)O (stereo not given) | 3300 nM | 900 nM | 5000 nM | –
CCCCCCC(Sc1nc(Cl)cc(Nc2nc(-c3ccc4c(c3)CCCC4)cs2)n1)C(=O)O (stereo not given) | 400 nM | 400 nM | 2300 nM | –
CCCCCCC(Sc1nc(Cl)cc(Nc2cccc(-c3ccccc3)c2)n1)C(=O)O (stereo not given) | – | – | – | IC50 (Prostaglandin E synthase [15]): 4000 nM; IC50 [7]: 600 nM
CCCCCCC(Sc1nc(Cl)cc(Nc2nc(-c3ccc([N+](=O)[O-])cc3)cs2)n1)C(=O)O (stereo not given) | 1400 nM | 5000 nM | 1800 nM | –
CCCCCCC(Sc1nc(Cl)cc(Nc2nc(-c3ccc(Br)cc3)c(C)s2)n1)C(=O)O (stereo not given) | 200 nM | 1300 nM | 1600 nM | Ratio IC50 [1]: 8
CCCCCCC(Sc1nc(Cl)cc(Nc2nc(-c3ccc(F)cc3F)cs2)n1)C(=O)O (stereo not given) | 1500 nM | 1800 nM | 2500 nM | –
CCCCCCC(Sc1nc(Cl)cc(Nc2nc(-c3ccc(Cl)c(Cl)c3)cs2)n1)C(=O)O (stereo not given) | 400 nM | 300 nM | 700 nM | –
